Laboratory results from patent US20250223268A1, “4-Methylsulfonylbenzamide Compound, Preparation Method, Herbicidal Composition And Use” (Jiangsu Flag Chemical Industry Co., Ltd., priority 2022, published 2025).

Experiments:
Assay type in all cases: in vivo
Echinochloa crusgalli [1] = test: Greenhouse herbicidal activity assay, post-emergence; conditions: Post-emergence test, rate 150 g a.i./hm^2, grade by fresh weight inhibition rate
How it was run: (§1)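 Letter grades (A: ≥80% to 100%; C: ≥40% to <60%; E: <20%) express fresh weight inhibition recorded 14-21 days post-spray. Weeds were treated on the leaves once they reached 3-6 leaves in chamber-grown pots, allowed to dry naturally, then kept in the chamber.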

Leptochloa chinensis [2] = test: as above; conditions: Post-emergence test, rate 150 g a.i./hm^2, grade by fresh weight inhibition rate
How it was run: as §1

Eclipta prostrata = test: as above; conditions: Post-emergence test, rate 150 g a.i./hm^2, grade by fresh weight inhibition rate
How it was run: as §1

Digitaria sanguinalis = test: as above; conditions: Post-emergence test, rate 150 g a.i./hm^2, grade by fresh weight inhibition rate
How it was run: as §1

Cyperus iria = test: as above; conditions: Post-emergence test, rate 150 g a.i./hm^2, grade by fresh weight inhibition rate
How it was run: as §1

[3] = tested on: Oryza sativa subsp. indica; test: Greenhouse herbicidal activity and crop safety comparison (Test Example 2); conditions: Rate 150 g/ha
How it was run: (§2)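 Fresh weight inhibition, banded into grades A to E (E <20%), was rated 14-21 days after foliar spraying of 3-6 leaf plants, or 14-30 days after a soil spray applied 24 h post-sowing.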

Echinochloa crusgalli [4] = test: as above; conditions: Rate 150 g/ha
How it was run: as §2

[5] = tested on: Oryza sativa subsp. japonica; test: as above; conditions: Rate 150 g/ha
How it was run: as §2

Leptochloa chinensis [6] = test: as above; conditions: Rate 150 g/ha
How it was run: as §2

Row | Compound | Control efficacy grade, Echinochloa crusgalli (Echinochloa crusgalli [1]) | Control efficacy grade, Leptochloa chinensis (Leptochloa chinensis [2]) | Control efficacy grade, Eclipta prostrata (Eclipta prostrata) | Control efficacy grade, Digitaria sanguinalis (Digitaria sanguinalis) | Control efficacy grade, Cyperus iria (Cyperus iria) | Oryza sativa subsp. indica, grading of fresh weight inhibition rate (crop safety) [3] | Echinochloa crusgalli, control efficacy grading (fresh weight inhibition rate) (Echinochloa crusgalli [4]) | Oryza sativa subsp. japonica, grading of fresh weight inhibition rate (crop safety) [5] | Leptochloa chinensis, control efficacy grading (fresh weight inhibition rate) (Leptochloa chinensis [6]) | pest or weed control at 150 g/ha (Echinochloa crusgalli [1]; Echinochloa crus-galli, read-out: Control efficacy grade, Echinochloa crusgalli) [%] | pest or weed control at 150 g/ha (Leptochloa chinensis [2]; Dinebra chinensis, read-out: Control efficacy grade, Leptochloa chinensis) [%] | pest or weed control at 150 g/ha (Eclipta prostrata; Eclipta prostrata, read-out: Control efficacy grade, Eclipta prostrata) [%] | pest or weed control at 150 g/ha (Digitaria sanguinalis; Digitaria sanguinalis, read-out: Control efficacy grade, Digitaria sanguinalis) [%] | pest or weed control at 150 g/ha (Cyperus iria; Cyperus iria, read-out: Control efficacy grade, Cyperus iria) [%] | inhibition at 150 g/ha (Echinochloa crusgalli [4]; Echinochloa crus-galli, read-out: Echinochloa crusgalli, control efficacy grading (fresh weight inhibition rate)) [%] | inhibition at 150 g/ha (Leptochloa chinensis [6]; Dinebra chinensis, read-out: Leptochloa chinensis, control efficacy grading (fresh weight inhibition rate)) [%]
1 | CS(=O)(=O)c1ccc(C(=O)Nc2nnco2)c(Cl)c1S(=O)(=O)CC(F)(F)F [Compound 3-327] | A (Fresh weight inhibition rate≥80% to 100%) | A (Fresh weight inhibition rate≥80% to 100%) | A (Fresh weight inhibition rate≥80% to 100%) | B (Fresh weight inhibition rate≥260% to <80%) | A (Fresh weight inhibition rate≥80% to 100%) | E (Fresh weight inhibition rate<20%) | A (Fresh weight inhibition rate≥80% to 100%) | E (Fresh weight inhibition rate<20%) | A (Fresh weight inhibition rate≥80% to 100%) |  |  |  |  |  |  | 
2 | C=CCS(=O)(=O)c1c(S(C)(=O)=O)ccc(C(=O)Nc2nnco2)c1Cl [Compound 3-342] | A (Fresh weight inhibition rate≥80% to 100%) | A (Fresh weight inhibition rate≥80% to 100%) | A (Fresh weight inhibition rate≥80% to 100%) | A (Fresh weight inhibition rate≥80% to 100%) | A (Fresh weight inhibition rate≥80% to 100%) | E (Fresh weight inhibition rate<20%) | A (Fresh weight inhibition rate≥80% to 100%) | E (Fresh weight inhibition rate<20%) | A (Fresh weight inhibition rate≥80% to 100%) |  |  |  |  |  |  | 
3 | CCCS(=O)(=O)c1c(S(C)(=O)=O)ccc(C(=O)Nc2nnc(CC)o2)c1Cl [Compound 3-387] | A (Fresh weight inhibition rate≥80% to 100%) | A (Fresh weight inhibition rate≥80% to 100%) | A (Fresh weight inhibition rate≥80% to 100%) | A (Fresh weight inhibition rate≥80% to 100%) | A (Fresh weight inhibition rate≥80% to 100%) | E (Fresh weight inhibition rate<20%) | A (Fresh weight inhibition rate≥80% to 100%) | E (Fresh weight inhibition rate<20%) | A (Fresh weight inhibition rate≥80% to 100%) |  |  |  |  |  |  | 
4 | CCc1nnc(NC(=O)c2ccc(S(C)(=O)=O)c(S(=O)(=O)C(C)C)c2Cl)o1 [Compound 3-392, 2-chloro-N-(5-ethyl-1,3,4-oxadiazol-2-yl)-3-(isopropylsulfonyl)-4-(methylsulfonyl)benzamide] |  |  |  |  |  | E (Fresh weight inhibition rate<20%) |  | E (Fresh weight inhibition rate<20%) |  | 80 to 100 | 80 to 100 | 80 to 100 | 80 to 100 | 80 to 100 | 80 to 100 | 80 to 100
5 | CCc1nnc(NC(=O)c2ccc(S(C)(=O)=O)c(S(=O)(=O)CC3CC3)c2Cl)o1 [Compound 3-418] | A (Fresh weight inhibition rate≥80% to 100%) | A (Fresh weight inhibition rate≥80% to 100%) | A (Fresh weight inhibition rate≥80% to 100%) | A (Fresh weight inhibition rate≥80% to 100%) | A (Fresh weight inhibition rate≥80% to 100%) | E (Fresh weight inhibition rate<20%) | A (Fresh weight inhibition rate≥80% to 100%) | E (Fresh weight inhibition rate<20%) | A (Fresh weight inhibition rate≥80% to 100%) |  |  |  |  |  |  | 
6 | CCc1nnc(NC(=O)c2ccc(S(C)(=O)=O)c(S(=O)(=O)C3CC3)c2Cl)o1 [Compound 3-423] | A (Fresh weight inhibition rate≥80% to 100%) | A (Fresh weight inhibition rate≥80% to 100%) | A (Fresh weight inhibition rate≥80% to 100%) | A (Fresh weight inhibition rate≥80% to 100%) | A (Fresh weight inhibition rate≥80% to 100%) | E (Fresh weight inhibition rate<20%) | A (Fresh weight inhibition rate≥80% to 100%) | E (Fresh weight inhibition rate<20%) | A (Fresh weight inhibition rate≥80% to 100%) |  |  |  |  |  |  | 
7 | CCc1nnc(NC(=O)c2ccc(S(C)(=O)=O)c(S(=O)(=O)C3CCC3)c2Cl)o1 [Compound 3-428] | A (Fresh weight inhibition rate≥80% to 100%) | A (Fresh weight inhibition rate≥80% to 100%) | A (Fresh weight inhibition rate≥80% to 100%) | A (Fresh weight inhibition rate≥80% to 100%) | A (Fresh weight inhibition rate≥80% to 100%) | E (Fresh weight inhibition rate<20%) | A (Fresh weight inhibition rate≥80% to 100%) | E (Fresh weight inhibition rate<20%) | A (Fresh weight inhibition rate≥80% to 100%) |  |  |  |  |  |  | 
8 | CCc1nnc(NC(=O)c2ccc(S(C)(=O)=O)c(S(=O)(=O)C3CCCC3)c2Cl)o1 [Compound 3-433] | A (Fresh weight inhibition rate≥80% to 100%) | A (Fresh weight inhibition rate≥80% to 100%) | A (Fresh weight inhibition rate≥80% to 100%) | A (Fresh weight inhibition rate≥80% to 100%) | A (Fresh weight inhibition rate≥80% to 100%) | E (Fresh weight inhibition rate<20%) | A (Fresh weight inhibition rate≥80% to 100%) | E (Fresh weight inhibition rate<20%) | A (Fresh weight inhibition rate≥80% to 100%) |  |  |  |  |  |  | 
9 | C=CCS(=O)(=O)c1c(S(C)(=O)=O)ccc(C(=O)Nc2nnc(CC)o2)c1Cl [Compound 3-458] | A (Fresh weight inhibition rate≥80% to 100%) | A (Fresh weight inhibition rate≥80% to 100%) | A (Fresh weight inhibition rate≥80% to 100%) | A (Fresh weight inhibition rate≥80% to 100%) | A (Fresh weight inhibition rate≥80% to 100%) | E (Fresh weight inhibition rate<20%) | A (Fresh weight inhibition rate≥80% to 100%) | E (Fresh weight inhibition rate<20%) | A (Fresh weight inhibition rate≥80% to 100%) |  |  |  |  |  |  | 
